# In patent US9371337B2, “β-lactamase inhibitors” (The Regents of the University of California, priority 2011, dated 2016):
# Several values for one entry are separate records, joined by “and”; a condition that tells them apart may be missing. Equal entries are not always repeated. Where two headings read alike, the source gives them in different places.
# Legend:
# [1] = target: T1, AmpC β-lactamase (Escherichia coli, UniProt P00811); test: biochemical; format: biochemical
# T1 construct: made in house
# Description: FIG. 18. Representative IC50 curves. […] IC50 curves were obtained by measuring rates (in duplicates) at different inhibitor concentrations (x-axis) and by determining the residual activity (y-axis, in percentage). IC50 values were determined by non-linear regression and Ki values calculated using GraphPad software assuming competitive inhibition.
# Sulfonamidomethaneboronic acids were dissolved in 100% DMSO at a concentration of 100 mM; more diluted stocks were prepared as necessary. […] The enzyme was expressed and purified as described (Usher, K. C. et al., Biochemistry 1998, 37, 16082-16092) and CENTA was purchased from Tydock Pharma.
# Kinetic measurements were run at room temperature in 50 mM sodium-cacodylate pH 6.5 in the presence of 0.01% Triton-X to prevent non-specific inhibition via compound aggregation. […] (Kettner, C. A. and Shenvi, A. B., J. Biol. Chem. 1984, 259, 15106-15114) Reactions were performed in 1 mL cuvettes with 60 μM CENTA and initiated by adding 1.2 nM enzyme. […] (Weston, G. S. et al., J. Med. Chem. 1998, 41, 4577-4586) The first 180 sec of each reaction were used to measure initial rates. IC50 values were obtained by fitting binding data to a sigmoidal dose-response equation using GraphPad Prism (GraphPad software, Inc). Ki values were determined by the use of Cheng-Prusoff equation. (Cheng, Y. and Prusoff, W. H., Biochem. Pharmacol. 1973, 22, 3099-3108)
# [2] = target: CTX-M-9 β-lactamase (Escherichia coli, UniProt Q9L5C8); test: biochemical; format: biochemical; settings: for Selectivity vs AmpC (comparison of IC50 values): Table 4h, CTX-M-9 vs AmpC; for potency estimated from few doses: read-out: IC50 (Estimated from single concentration measurement); for inhibition at 16 µM: read-out: Percentage inhibition with 16 μM inhibitor
# Description: Reactions were initiated by the addition of 0.3 nM enzyme and monitored at 405 nm.
# (§1) To assess the selectivity of the new molecules we determined Ki values against three common serine proteases, Trypsin, Elastase and α-Chymotrypsin, as well as that of a class A β-lactamase, CTX-M-9 (Table 10) (Pouvreau L, et al. (1998), FEBS Lett 423:167-172; Del Mar E G, et al. (1980), Biochemistry 19:468-472; Rodriguez-Martinez J A, et al. (2009), Biotechnol Lett 31:883-887; Chen Y, et al. (2005), J Mol Biol 348:349-362).
# [3] = target: T2, α-chymotrypsin (bovine pancreatic) (Bos taurus, UniProt P00766); test: α-Chymotrypsin inhibition; format: biochemical; settings: for activity at 100 µM: Table 4b, 100 μM inhibitor, read-out: Percentage activity with 100 μM inhibitor; for potency estimated from few doses: Table 4e, read-out: IC50 (Estimated from single concentration measurement); for Ki: Table 10, α-Chymotrypsin; for Selectivity vs AmpC (comparison of IC50 values): Table 4h, Chymotrypsin vs AmpC; for inhibition at 100 µM: read-out: Percentage inhibition with 100 μM inhibitor
# T2 construct: purchased Sigma-Aldrich
# Description: α-Chymotrypsin assays were performed in 50 mM Tris buffer pH 7.5 with 0.01% Triton-X. Inhibitor and 0.001 mg/mL enzyme were incubated at their final concentration for 10 min before the reaction was initiated by the addition of 200 μM N-succinyl-Ala-Ala-Pro-Phe p-nitroanilide and monitored at 410 nm.
# as §1
# [4] = target: T3, Trypsin (UniProt P00760); test: Trypsin inhibition; format: biochemical; settings: Table 10, Trypsin
# T3 construct: IC50 (Estimated from single concentration measurement); Ki
# T3 sequence (P00760 1-246): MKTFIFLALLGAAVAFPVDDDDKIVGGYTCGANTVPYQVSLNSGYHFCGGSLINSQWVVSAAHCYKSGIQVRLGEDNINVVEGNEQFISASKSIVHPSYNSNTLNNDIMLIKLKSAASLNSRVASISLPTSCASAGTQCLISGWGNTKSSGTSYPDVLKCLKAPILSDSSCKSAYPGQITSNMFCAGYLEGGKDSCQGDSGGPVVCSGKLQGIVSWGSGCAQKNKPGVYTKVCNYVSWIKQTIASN
# From the text: as §1
# [5] = tested on: Elastase; test: Elastase inhibition; format: biochemical; settings: Table 4h, Elastase vs AmpC
# From the text: as §1
# [6] = tested on: clinical strains resistant to third-generation cephalosporins; test: MIC distribution of third-generation cephalosporins alone or with compounds over clinical strains; format: cell-based; settings: for clinical isolates for which MICs dropped into the susceptible range (MICs≦1 μg/mL): cephalosporins combined with the compound; for MIC 25% percentile / MIC 75% percentile: third-generation cephalosporins in combination with the compound
# Description: The anti-resistance activity of inhibitors was investigated by the determination of the minimum inhibitory concentrations (MICs) of the β-lactam/inhibitor combination necessary to inhibit the growth of clinically-isolated bacteria resistant to third-generation cephalosporins via expression of class A or class C β-lactamases (Table 6).
# Susceptibility testing was performed and interpreted following the guidelines of CLSI. (Clinical and Laboratory Standards Institute, Performance standards for antimicrobial susceptibility testing, 20th Informational Supplement, M100-S20 2010) The compounds were dissolved in 50% DMSO, and dilutions were performed using Muller-Hinton medium. An adequate final concentration was obtained to determine the minimum inhibitory concentrations (MICs). The concentration of DMSO was maintained below 5%. The inhibitors were tested for synergy with the third-generation β-lactams ceftazidime and cefotaxime against several clinical bacteria. The ratio of β-lactams to inhibitors was 1:4. Each value reported reflects the average of three independent experiments. […] The Friedman's test and the Wilcoxon signed rank test were used to compare MIC values. Statistical significance was established at p<0.05.
# [7] = target: T1, AmpC β-lactamase; format: biochemical; settings: for type of inhibition: Lineweaver-Burk analysis, competition with substrate CENTA; for time dependence of inhibition (incubation effect, off-rate): enzyme incubation and dilution experiments
# [8] = target: T3, Trypsin; test: Trypsin inhibition; format: biochemical; settings: for Percentage activity with 100 μM inhibitor: Table 4b; for Percentage inhibition with 100 μM inhibitor: Table 4c; for potency estimated from few doses: read-out: IC50 (Estimated from single concentration measurement), Table 4e
# [9] = tested on: Trypsin; test: Trypsin inhibition; format: biochemical; settings: Table 4h, Trypsin vs AmpC
# [10] = Ki (from multi- or single concentration measurements), Table 4g
# [11] = Table 8, read-out: Ki vs CTX-M-9
# Chain of CTX-M-9 β-lactamase (Q9L5C8 29-291): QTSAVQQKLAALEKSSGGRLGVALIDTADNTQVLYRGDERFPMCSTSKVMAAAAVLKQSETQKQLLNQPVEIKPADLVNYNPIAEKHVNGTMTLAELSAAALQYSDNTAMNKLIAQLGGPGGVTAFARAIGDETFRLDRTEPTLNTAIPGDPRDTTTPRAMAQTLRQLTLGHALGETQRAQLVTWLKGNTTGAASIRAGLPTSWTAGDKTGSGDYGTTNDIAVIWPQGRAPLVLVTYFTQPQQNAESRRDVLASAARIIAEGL
# T1 sequence (P00811 20-377): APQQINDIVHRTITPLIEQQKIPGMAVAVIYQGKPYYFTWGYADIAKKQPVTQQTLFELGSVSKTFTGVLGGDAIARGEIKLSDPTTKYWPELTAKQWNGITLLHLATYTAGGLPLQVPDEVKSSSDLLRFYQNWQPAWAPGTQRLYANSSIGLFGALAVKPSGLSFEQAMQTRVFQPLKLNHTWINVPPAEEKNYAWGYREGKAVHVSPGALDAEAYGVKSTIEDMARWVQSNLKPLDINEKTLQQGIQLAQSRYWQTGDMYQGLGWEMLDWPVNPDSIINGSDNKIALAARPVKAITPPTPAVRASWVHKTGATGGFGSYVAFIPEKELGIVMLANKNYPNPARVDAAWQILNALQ
Compound,IC50 [1] [nM],Ligand efficiency ([1]; Table 5),IC50 [2] [µM],Selectivity vs AmpC (comparison of IC50 values) [2],potency estimated from few doses [2] [µM],inhibition at 16 µM [2] [%],activity at 100 µM [3] [%],potency estimated from few doses [3] [µM],Ki [3] [µM],Selectivity vs AmpC (comparison of IC50 values) [3],inhibition at 100 µM [3] [%],Ki [4] [µM],Selectivity vs AmpC (comparison of IC50 values) [5],clinical isolates for which MICs dropped into the susceptible range (MICs≦1 μg/mL) [6] [%],MIC 25% percentile [6] [µg/mL],MIC 75% percentile [6] [µg/mL],type of inhibition [7],"time dependence of inhibition (incubation effect, off-rate) [7]",Percentage activity with 100 μM inhibitor [8],Percentage inhibition with 100 μM inhibitor [8],other results
"O=S(=O)(NCB(O)O)c1ccc(-c2nn[nH]n2)nc1 [CR161, [6-(3-tetrazol-5-yl)pyridin-3-sulfonylamino]methaneboronic acid hydrocloride]",6.6,0.64,6.7,1015,8,66,90,900,224,136364,10,350,25799,75,0.5,1.5,competitive,incubation effect owing to slow off-rates,95,5,"Ki ([1]; Ki): 0.8 to 1.3 nM; Ki [1, 10]: 0.8 nM; Ki ([1]; Ki Vs AmpC, Table 7): 0.8 nM; Ki ([1]; Ki vs AmpC, Table 8): 0.8 nM; Ki ([1]; Ki, Table 5): 0.8 nM; Ki ([1]; Ki, Table 10, AmpC): 0.8 nM; Ki [2, 11]: 3900 nM; potency estimated from few doses [8]: 1.9 mM; Selectivity vs AmpC (comparison of IC50 values) [9]: 287879"
"O=C(O)c1cccc(CS(=O)(=O)NCB(O)O)c1 [CR167, [3-(Carboxyphenyl)methanesulfonylamino]methaneboronic acid]",6.5,0.66,0.125,19,0.162,99,99,9900,2460,1523077,1,350,22139,75,0.5,1.5,competitive,incubation effect owing to slow off-rates,95,5,"Ki ([1]; Ki): 0.8 to 1.3 nM and 1.3 nM; Ki [1, 10]: 1.3 nM; Ki ([1]; Ki Vs AmpC, Table 7): 1.3 nM; Ki ([1]; Ki vs AmpC, Table 8): 1.3 nM; Ki ([1]; Ki, Table 5): 1.3 nM; Ki ([1]; Ki, Table 10, AmpC): 1.3 nM; selectivity towards AmpC versus CTX-M-9 β-lactamase ([2]; ratio of Ki values): ~30 fold; Ki ([2]; read-out: Ki): 45 nM; potency estimated from few doses [8]: 1.9 mM; Selectivity vs AmpC (comparison of IC50 values) [9]: 292308"
"O=S(=O)(NCB(O)O)c1ccc(-c2nnn[nH]2)cc1C(F)(F)F [CR192, [4-(3-tetrazol-5-yl)-2-trifluoromethyl-benzensulfonylamino]methaneboronic acid]",0.4,0.60,5,11948,5,77,85,567,141,1416667,15,442,34091,50,1.0,2.0,competitive,slow off-rate,96,4,"time until substrate hydrolysis rates converge (equilibrium) ([1]; 50 pM AmpC, 500 pM inhibitor, with or without 5 minutes pre-incubation): 10 to 15 min; Ki ([1]; Table 4g, read-out: Ki (from multi- or single concentration measurements)): 0.05 nM; Ki ([1]; Table 5, read-out: Ki): 0.05 nM; Ki ([1]; Table 7, read-out: Ki Vs AmpC): 0.05 nM; Ki ([1]; Table 8, read-out: Ki vs AmpC): 0.05 nM; Ki ([1]; Table 10, AmpC, read-out: Ki): 0.05 nM; improved affinity compared to CR157 ([1]; ratio of Ki values): 24 fold; Ki ([1]; running text and FIG. 18, substrate CENTA 105 μM, read-out: Ki): 0.05 nM; Ki [2, 11]: 1800 nM; potency estimated from few doses [8]: 2.4 mM; Selectivity vs AmpC (comparison of IC50 values) [9]: 6000000"
O=S(=O)(Cc1cccs1)NCB(O)O [Compound 10],,,,,,,,,,,,,,,,,,,,,melting point: 185 to 188 °C
